According to ChEMBL document CHEMBL3638734, “5-HT3 receptor modulators, methods of making, and use thereof” (2013):

Biological target: T1, 5-hydroxytryptamine receptor 3A (Homo sapiens, UniProt P46098)
T1 sequence (P46098 whole entry): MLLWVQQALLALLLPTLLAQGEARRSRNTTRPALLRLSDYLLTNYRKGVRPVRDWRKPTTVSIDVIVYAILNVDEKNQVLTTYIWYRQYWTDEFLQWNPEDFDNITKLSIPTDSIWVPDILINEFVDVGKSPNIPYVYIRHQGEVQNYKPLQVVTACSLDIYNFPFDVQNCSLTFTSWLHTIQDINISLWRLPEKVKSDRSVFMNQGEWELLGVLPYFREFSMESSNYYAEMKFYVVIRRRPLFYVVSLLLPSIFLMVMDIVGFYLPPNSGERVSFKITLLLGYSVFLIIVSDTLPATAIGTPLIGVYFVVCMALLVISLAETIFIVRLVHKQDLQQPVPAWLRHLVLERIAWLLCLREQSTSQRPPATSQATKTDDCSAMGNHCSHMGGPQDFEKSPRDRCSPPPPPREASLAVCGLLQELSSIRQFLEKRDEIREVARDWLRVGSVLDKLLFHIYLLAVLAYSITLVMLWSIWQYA
Assay: Radioligand Binding Assay: The relative affinity of the various compounds for the human 5-HT3 receptor was measured in a radioligand binding assay, using a scintillation proximity assay (SPA) format.

| Structure (SMILES) | Ki [nM] |
| --- | --- |
| Cn1nc2c3c(cccc31)C(=O)N([C@@H]1CN3CCC1CC3)CC2 | 2 |
| O=C1c2cccc3[nH]nc(c23)CCN1[C@@H]1CN2CCC1CC2 | 4 |
| CCn1nc2c3c(cccc31)C(=O)N([C@@H]1CN3CCC1CC3)CC2 | 1 |
| CC(C)n1nc2c3c(cccc31)C(=O)N([C@@H]1CN3CCC1CC3)CC2 | 2 |
| O=C1c2cccc3c2c(nn3Cc2ccccc2)CCN1[C@@H]1CN2CCC1CC2 | 2 |
| O=C1c2cccc3[nH]nc(c23)CCN1[C@H]1CN2CCC1CC2 | 108 |
| O=C1c2cccc3c2c(cn3S(=O)(=O)c2ccccc2)CCN1[C@@H]1CN2CCC1CC2 | 25 |
